The assay deals with pERK after EGF stimulation in DLD1 cells. Nature of the assay: ERK phosphorylation assay (alphascreen pERK). The assay is classed as cell-based. The note with it: Homo sapiens, DLD-1, 2 h compound, 200 ng/ml hEGF for 5 minutes, read-out: ERK phosphorylation inhibition IC50. The protocol: Compounds were tested for their ability to inhibit pERK after EGF stimulation in DLD1 cells. Cells were seeded at 0.2 million cells per well in 96 well cell binding tissue culture plate in 100 μL complete media and were allowed to settle overnight (16 to 20 h). On the following day, cells were treated with various concentrations of test compounds for 2 h followed by stimulation with 200 ng/ml hEGF (diluted in PBS) for 5 minutes. Cells were then washed once with PBS and lysed in freshly prepared lysis buffer (provided with alphascreen surefire ERK1/2 p-T202/Y204 assay kit, cat no: TGRESB10K, Perkin Elmer). Lysis was carried out in plate shaker for 10-15 mins. Lysate was transferred to […] white opti-plate (Perkin Elmer) and alphascreen for pERK was carried out as per manufacturer's instructions. Plate was read after 2 h incubation in plate shaker at […] 300 RPM, 25-28° C. The difference between the unstimulated and stimulated Vehicle control is considered as 100% ERK phosphorylation, and % inhibition of compounds is calculated accordingly.

Molecules are shown by their SMILES.

Take `Cc1nc(NC(C)c2cccc(C(O)(CO)C(F)(F)F)c2F)c2cc3c(cc2n1)OC(C)(C)C(=O)N3C` (racemic) [Compound 22, 4-(((R&S)-1-(2-Fluoro-3-((R&S)-1,1,1-trifluoro-2,3-dihydroxypropan-2-yl)phenyl)ethyl)amino)-2,6,8,8-tetramethyl-6H-[1,4]oxazino[3,2-g]quinazolin-7(8H)-one]: the IC50 lay within 201 to 500 nM.

For the molecule `CO[C@]1(C)C(=O)N(C)c2cc3c(N[C@H](C)c4cccc(C(F)(F)[C@](C)(O)CO)c4F)nc(C)nc3cc21` (racemic) [Compound 103, (S/R)-4-(((R/S)-1-(3-((R/S)-1,1-difluoro-2,3-dihydroxy-2-methylpropyl)-2-fluorophenyl)ethyl)amino)-8-methoxy-2,6,8-trimethyl-6,8-dihydro-7H-pyrrolo[2,3-g]quinazolin-7-one], the IC50 was 201 to 500 nM.

As to `Cc1nc(N[C@H](C)c2cccc(C(F)(F)[C@@](C)(O)CN(C)C)c2F)c2cc3c(cc2n1)C(C)(C)C(=O)N3C` (racemic) [Compound 129b, 4-(((R)-1-(3-((S/R)-3-(dimethylamino)-1,1-difluoro-2-hydroxy-2-methylpropyl)-2-fluorophenyl)ethyl)amino)-2,6,8,8-tetramethyl-6,8-dihydro-7H-pyrrolo[2,3-g]quinazolin-7-one], the IC50 lay in the range of 1 to 200 nM.

Take `CNC[C@](C)(O)C(F)(F)c1cccc([C@@H](C)Nc2nc(C)nc3cc4c(cc23)N(C)C(=O)C4(C)C)c1F` (racemic) [Compound 130b, 4-(((R)-1-(3-((S/R)-1,1-difluoro-2-hydroxy-2-methyl-3-(methylamino)propyl)-2-fluorophenyl)ethyl)amino)-2,6,8,8-tetramethyl-6,8-dihydro-7H-pyrrolo[2,3-g]quinazolin-7-one]: the IC50 lay within 1 to 200 nM.

Consider `Cc1nc(N[C@H](C)c2cccc(C3CCCNC3)c2F)c2cc3c(cc2n1)C(C)(C)C(=O)N3C` (mixture of isomers) [Compound 133, (R & S)-4-(((R)-1-(2-fluoro-3-((R & S)-piperidin-3-yl)phenyl)ethyl)amino)-2,6,8,8-tetramethyl-6,8-dihydro-7H-pyrrolo[2,3-g]quinazolin-7-one], for which the IC50 fell in the range of 201 to 500 nM.

For the molecule `COC1(C)C(=O)N(C)c2cc3nc(C)nc(N[C@H](C)c4cc(N)cc(C(F)(F)F)c4)c3cc21` (mixture of isomers) [Compound 137, 4—(((R)-1-(3-amino-5-(trifluoromethyl)phenyl)ethyl)amino)-6-methoxy-2,6,8-trimethyl-6,8-dihydro-7H-pyrrolo[3,2-g]quinazolin-7-one], the IC50 fell in the range of 1 to 200 nM.

Take `Cc1nc(NC(C)c2cc(N)cc(C(F)F)c2)c2cc3c(cc2n1)OCC(=O)N3C` (single isomer, unassigned) [Compound 5, (R/S)-4-((1-(3-Amino-5-(difluoromethyl)phenyl)ethyl)amino)-2,6-dimethyl-6H-[1,4]oxazino[3,2-g]quinazolin-7(8H)-one]: the IC50 fell in the range of 1 to 200 nM.

With `Cc1nc(N[C@H](C)c2cccc([C@@](O)(CO)C(F)(F)F)c2F)c2cc3c(cc2n1)OC(C)(C)C(=O)N3C` (single isomer, unassigned) [Compound 22b, 4-(((R/S)-1-(2-fluoro-3-((R/S)-1,1,1-trifluoro-2,3-dihydroxypropan-2-yl)phenyl)ethyl)amino)-2,6,8,8-tetramethyl-6H-[1,4]oxazino[3,2-g]quinazolin-7(8H)-one], the IC50 lay within 201 to 500 nM.

In the case of `Cc1nc(N[C@H](C)c2cccc(C(F)(F)C(C)(C)O)c2F)c2cc3c(cc2n1)O[C@@H](C(C)C)C(=O)N3C` (single isomer, unassigned) [Compound 32a], the IC50 fell in the range of 1 to 200 nM.

Consider `Cc1nc(N[C@H](C)c2cc(N)cc(C(F)(F)F)c2)c2cc3c(cc2n1)OCCN3CC1CCOC1` (single isomer, unassigned) [Compound 43], for which the IC50 lay within 1 to 200 nM.

For `Cc1nc(NC(C)c2cc(N)cc(C(F)F)c2)c2cc3c(cc2n1)C(C)(C)C(=O)N3C` (single isomer, unassigned) [Compound 69, (R/S)-4-((1-(3-amino-5-(difluoromethyl)phenyl)ethyl)amino)-2,6,8,8-tetramethyl-6H-pyrrolo[2,3-g]quinazolin-7(8H)-one], the IC50 fell in the range of 1 to 200 nM.

On to `Cc1nc(N[C@H](C)c2cccc(C(F)(F)[C@](C)(O)CO)c2F)c2cc3c(cc2n1)C(C)(C)C(=O)N3C` (single isomer, unassigned) [Compound 76b], for which the IC50 is 201 to 500 nM.

For the molecule `COC1(C)C(=O)N(C)c2cc3nc(C)nc(N[C@H](C)c4cccc(C(F)(F)C(C)(C)O)c4F)c3cc21` (single isomer, unassigned) [Compound 96b], the IC50 lay within 1 to 200 nM.

Take `Cc1nc(N[C@H](C)c2cccc(C(F)(F)C(C)(C)O)c2F)c2cc3c(cc2n1)C(C)(F)C(=O)N3C` (single isomer, unassigned) [Compound 116a]: the IC50 lay in the range of 201 to 500 nM.

Regarding `Cc1nc(N[C@H](C)c2cccc(C(F)(F)C(C)(C)O)c2F)c2cc3c(cc2n1)[C@](C)(F)C(=O)N3C` (single isomer, unassigned) [Compound 116b], the IC50 was 1 to 200 nM.

For `COCCC1(C)C(=O)N(C)c2cc3c(N[C@H](C)c4cccc(C(F)(F)C(C)(C)O)c4F)nc(C)nc3cc21` (single isomer, unassigned) [Compound 123b], the IC50 fell in the range of 1 to 200 nM.

With `COC1(C(F)(F)F)C(=O)N(C)c2cc3c(N[C@H](C)c4cccc(C(F)(F)C(C)(C)O)c4F)nc(C)nc3cc21` (single isomer, unassigned) [Compound 125a], the IC50 is 201 to 500 nM.

For `CO[C@]1(C(F)(F)F)C(=O)N(C)c2cc3c(N[C@H](C)c4cccc(C(F)(F)C(C)(C)O)c4F)nc(C)nc3cc21` (single isomer, unassigned) [Compound 125b], the IC50 is 1 to 200 nM.

In the case of `CCC1(OC)C(=O)N(C)c2cc3c(N[C@H](C)c4cccc(C(F)(F)C(C)(C)O)c4F)nc(C)nc3cc21` (single isomer, unassigned) [Compound 126a], the IC50 was 1 to 200 nM.

On to `CC[C@@]1(OC)C(=O)N(C)c2cc3c(N[C@H](C)c4cccc(C(F)(F)C(C)(C)O)c4F)nc(C)nc3cc21` (single isomer, unassigned) [Compound 126b], for which the IC50 lay within 201 to 500 nM.

For the molecule `COCC(C)(O)C(F)(F)c1cccc([C@@H](C)Nc2nc(C)nc3cc4c(cc23)N(C)C(=O)C4(C)C)c1F` (single isomer, unassigned) [Compound 127a], the IC50 lay within 201 to 500 nM.

In the case of `COCCC1(OC)C(=O)N(C)c2cc3c(N[C@H](C)c4cccc(C(F)(F)C(C)(C)O)c4F)nc(C)nc3cc21` (single isomer, unassigned) [Compound 132a], the IC50 was in the range of 1 to 200 nM.

For `Cc1nc(NC(C)c2cccc(C(F)(F)F)c2F)c2cc3c(cc2n1)C(C)(C)C(=O)N3C` (single isomer, unassigned) [Compound 134, (R/S)-4-((1-(2-fluoro-3-(trifluoromethyl)phenyl)ethyl)amino)-2,6,8,8-tetramethyl-6,8-dihydro-7H-pyrrolo[2,3-g]quinazolin-7-one], the IC50 lay within 201 to 500 nM.

Turning to `Cc1nc(N[C@H](C)c2cccc(C(F)(F)C(C)(C)O)c2F)c2cc3c(cc2n1)OCC(=O)N3C` [Compound 3, (R)-4-((1-(3-(1,1-difluoro-2-hydroxy-2-methylpropyl)-2-fluorophenyl)ethyl)amino)-2,6-dimethyl-6H-[1,4]oxazino[3,2-g]quinazolin-7(8H)-one], the IC50 lay in the range of 201 to 500 nM.

For `CCc1nc(N[C@H](C)c2cc(N)cc(C(F)(F)F)c2)c2cc3c(cc2n1)OCC(=O)N3C` [Compound 14, (R)-4-((1-(3-amino-5-(trifluoromethyl)phenyl)ethyl)amino)-2-ethyl-6-methyl-6H-[1,4]oxazino[3,2-g]quinazolin-7(8H)-one], the IC50 was 1 to 200 nM.

`Cc1nc(N[C@H](C)c2cccc(C(F)(F)C(C)(C)O)c2F)c2cc3c(cc2n1)OC(C)(C)C(N1CCOCC1)=N3` [Compound 26, (R)-1,1-Difluoro-1-(2-fluoro-3-(1-((2,8,8-trimethyl-7-morpholino-8H [1,4]oxazino[3,2-g]quinazolin-4-yl)amino)ethyl)phenyl)-2-methylpropan-2-ol]: the IC50 lay within 201 to 500 nM.

On to `Cc1nc(N[C@H](C)c2cccc(C(F)(F)C(C)(C)O)c2F)c2cc3c(cc2n1)OC(C)(C)C(=O)N3C` [Compound 33, (R)-4-((1-(3-(1,1-Difluoro-2-hydroxy-2-methylpropyl)-2-fluorophenyl)ethyl)amino)-2,6,8,8-tetramethyl-6H-[1,4]oxazino[3,2-g]quinazolin-7(8H)-one], for which the IC50 lay in the range of 1 to 200 nM.

For the molecule `Cc1nc(N[C@H](C)c2cccc(C(F)(F)C(C)(C)O)c2F)c2cc3c(cc2n1)n(C)c(=O)c(=O)n3C` [Compound 40, (R)-4-((1-(3-(1,1-Difluoro-2-hydroxy-2-methylpropyl)-2-fluorophenyl)ethyl)amino)-2,6,9-trimethyl-6,9-dihydropyrazino[2,3-g]quinazoline-7,8-dione], the IC50 lay in the range of 201 to 500 nM.

`CCN1C(=O)C(C)(C)Oc2cc3nc(C)nc(N[C@H](C)c4cccc(C(F)(F)C(C)(C)O)c4F)c3cc21` [Compound 41, (R)-4-((1-(3-(1,1-difluoro-2-hydroxy-2-methylpropyl)-2-fluorophenyl)ethyl)amino)-6-ethyl-2,8,8-trimethyl-6H-[1,4]oxazino[3,2-g]quinazolin-7(8H)-one]: the IC50 fell in the range of 201 to 500 nM.

Regarding `Cc1nc(N[C@H](C)c2cccc(C(F)(F)C(C)(C)O)c2)c2cc3c(cc2n1)OC(C)(C)C(=O)N3C` [Compound 57, (R)-4-((1-(3-(1,1-difluoro-2-hydroxy-2-methylpropyl)phenyl)ethyl)amino)-2,6,8,8-tetramethyl-6H-[1,4]oxazino[3,2-g]quinazolin-7(8H)-one], the IC50 was in the range of 1 to 200 nM.

For the origin of these results see patent US20260209247A1, “Substituted Tricyclic Compounds” (Lupin Limited, priority 2019, published 2026).
